Results: patent publication US12070445B2, “System and assay for monitoring production/release of membrane-lytic toxins in bacteria and compounds for modulating same” (priority 2021, dated 2024)

Tested on: agr
Test: agr YFP transcriptional reporter assay (S. aureus AH1677 with pDB59)
Format: cell-based
Details: Staphylococcus aureus, 24 h, read-out: IC50 in the agr reporter assay
Procedure: Bacterial strains and culture. All bacteria were grown at 37° C. with 200 rpm shaking unless otherwise specified. S. aureus and P. aeruginosa were grown in BHI medium and LB medium, respectively. S. aureus AH1677 (with an agr-YFP reporter plasmid) and P. aeruginosa PAO1-PGSC (with a plasI-LVAgfp reporter plasmid) were used as QS transcriptional reporters and grown with 10 μg/mL chloramphenicol and 300 μg/mL carbenicillin, respectively. All other strains were grown without supplemental antibiotic. S. aureus RN6390b and P. aeruginosa PAO1-PGSC were used as WT strains in vesicle lysis experiments, while S. aureus RN9222 and P. aeruginosa PAO-JG35 were used as QS mutants. RN9222 was grown without antibiotic as it was not used as a reporter strain (i.e., it served only as QS mutant).
High-throughput screening and follow-up analysis protocols. Test compounds and positive control 1 were delivered in 2.5 nL aliquots of DMSO with an Echo 550 liquid handler (LabCyte Inc.) into black 384-well microtiter plates (Corning). All test compounds were tested at 10 μM; positive control 1 was tested at 250 nM. DMSO was used as a negative control. Overnight cultures (2 mL) of WT S. aureus (RN6390b) were grown at 37° C. with shaking at 200 rpm. These cultures were diluted 1:500 (v/v) in fresh BHI medium, at which point vesicle solutions were added to a final concentration of 1 mM phospholipid (as determined by ^31P NMR analyses). This vesicle-cell mixture was then added to the 384-well microtiter plates with a Multidrop 384 liquid-dispensing robot (Thermo Scientific) for a total volume of 50 μL per well. Plates were incubated statically for ˜24 hr at 37° C., at which point fluorescence (excitation 483, emission 530) and OD600 (absorbance at 600 nm) measurements were made using a CLARIOstarR Plus microtiter plate reader (BMG Labtech) running MARS data analysis software. Scatter plots were generated using the Collaborative Drug Discovery Vault informatics platform. The dose-response experiment using the vesicle lysis assay was performed in a 384-well plate in technical duplicate with compound concentrations of 0.1, 0.25, 0.5, 1, 2.5, 5, 10, and 20 μM. Dose-response curves were generated using variable slope (4 parameter) non-linear regression analysis for compound inhibition using GraphPad Prism software (v. 9). Analysis of the QS modulatory activity of the HTS hits and 6 (savirin) was performed using the S. aureus YFP transcriptional reporter strain. HTS hits were purchased directly from Life Chemicals, Inc. DMSO stock solutions (10 mM) of each compound were prepared and stored at −20° C. Serial dilutions (1:3) were prepared from the stock solutions in DMSO, and 2 μL aliquots of the resulting dilutions were added to the wells of black 96-well microtiter plates (Corning). Overnight cultures of the S. aureus reporter strain (2 mL) were grown at 37° C. with shaking at 200 rpm. Cultures were diluted 1:50 (v/v) into fresh BHI medium, and 198 μL of this diluted culture were added to each well containing compound, for a total volume of 200 μL per well. All plates contained a vehicle control consisting of 2 μL of DMSO and 198 μL of culture and a media control consisting of 200 μL BHI. Plates were incubated for ˜24 hours at 37° C. with shaking at 200 rpm. Fluorescence (excitation 510, emission 544) and OD600 measurements were acquired with a PerkinElmer EnVision microtiter plate reader running Envision Manager software. Background fluorescence from BHI control was subtracted from raw fluorescence reads, OD600 corrected, and finally normalized to vehicle control. Dose-response curves and IC50 values were generated using 3-parameter non-linear regression analysis for compound inhibition using GraphPad Prism software (v. 9). All compounds were tested in technical triplicate with at least 3 biological replicates.

CC(C)c1ccc(S(=O)(=O)c2nnn3c2nc(O)c2ccccc23)cc1 [Compound 6, savirin]
IC50: 5.5 µM
